From patent US20240251792A1, “WEED CONTROL METHOD” (SYNGENTA CROP PROTECTION AG, priority 2021, published 2024)
Read-outs that look alike come from different tables or passages of the source.

Experiments:
Type in all cases: in vivo
[1] = system: STEME; experiment: Biological efficacy, pre-emergence glasshouse test (Table 2); details: 1000 g/ha, after 12 days
Method: (§1) Seeds of a variety of test species were shown in unsterilised compost in small pots. After cultivation for one day (pre-emergence) or seven days (post-emergence) in controlled conditions in the glasshouse (at 24/16° C., day/night; 14 hours light; 65% humidity) the plants were sprayed with 1 mg of the active ingredient, formulated in 466 μl of a acetone/water/Tween 20 (49.75:49.75:0.5) solution, which is equivalent to 1000 g/ha. Once the foliage was dry, the pots were kept in the glasshouse (at 24/16° C., day/night; 14 hours light; 65% humidity), and were watered twice daily. After 12 days the test was evaluated and scored (100=total damage to plant, 0=no damage to plant).

[2] = system: DIGSA; experiment: as above; details: 1000 g/ha, after 12 days
Method: as §1

[3] = system: LOLPE; experiment: as above; details: 1000 g/ha, after 12 days
Method: as §1

[4] = system: AMARE; experiment: as above; details: 1000 g/ha, after 12 days
Method: as §1

[5] = system: STEME; experiment: Biological efficacy, post-emergence glasshouse test (Table 2); details: 1000 g/ha, after 12 days
Method: as §1

[6] = system: DIGSA; experiment: as above; details: 1000 g/ha, after 12 days
Method: as §1

[7] = system: LOLPE; experiment: as above; details: 1000 g/ha, after 12 days
Method: as §1

[8] = system: AMARE; experiment: as above; details: 1000 g/ha, after 12 days
Method: as §1

[9] = system: STEME; experiment: Pre-emergence biological efficacy (Table 3); details: after 13 days; for pest or weed control at 1000 g/ha: 312 h, read-out: evaluation (100=total damage to plant; 0=no damage to plant); for evaluation (100=total damage to plant; 0=no damage to plant): 1000 g/ha
In short: (§2)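 After sowing in pots and one day of glasshouse cultivation, spray is applied at the desired dose from a 50 g/l acetone/AMA stock diluted in 0.2% Genapol X080. Plants grow at 24/18 °C, 15 h light, 50% humidity, and damage is rated 0–100 after 13 days.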

[10] = system: ZEAMX; experiment: Pre-emergence biological efficacy (Table 3); details: 1000 g/ha, after 13 days; for plant injury at 1000 g/ha: 312 h, read-out: evaluation (100=total damage to plant; 0=no damage to plant)
In short: as §2

[11] = system: ECHCG; experiment: Pre-emergence biological efficacy (Table 3); details: 1000 g/ha, after 13 days; for pest or weed control at 1000 g/ha: Echinochloa crus-galli, 312 h, read-out: evaluation (100=total damage to plant; 0=no damage to plant)
In short: as §2

[12] = system: IPOHE; experiment: Pre-emergence biological efficacy (Table 3); details: 1000 g/ha, after 13 days; for pest or weed control at 1000 g/ha: Ipomoea hederacea, 312 h, read-out: evaluation (100=total damage to plant; 0=no damage to plant)
In short: as §2

[13] = system: ABUTH; experiment: Pre-emergence biological efficacy (Table 3); details: after 13 days; for pest or weed control at 1000 g/ha: Abutilon theophrasti, 312 h, read-out: evaluation (100=total damage to plant; 0=no damage to plant); for evaluation (100=total damage to plant; 0=no damage to plant): 1000 g/ha
In short: as §2

[14] = system: AMARE; experiment: Pre-emergence biological efficacy (Table 3); details: 1000 g/ha, after 13 days; for pest or weed control at 1000 g/ha: Amaranthus retroflexus, 312 h, read-out: evaluation (100=total damage to plant; 0=no damage to plant)
In short: as §2

[15] = system: weeds and/or crops; experiment: Post-emergence biological efficacy (Table 4); details: 1000 g/ha, evaluated after 13 days; for pest or weed control at 1000 g/ha: 312 h
In short: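 Weeds and crops were grown 14 days in a glasshouse, then sprayed post-emergence with compound formulated in acetone/F50 and diluted in 0.2% Genapol X080 to the final dose. Damage was scored after 13 days on a 0–100 scale, where 100 is total damage.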

[16] = STEME, read-out: damage to plant STEME (100=total damage; 0=no damage)
[17] = ZEAMX, read-out: damage to plant ZEAMX (100=total damage; 0=no damage)
[18] = Amaranthus retroflexus, AMARE, read-out: damage to plant AMARE (100=total damage; 0=no damage)
[19] = Echinochloa crus-galli, ECHCG, read-out: damage to plant ECHCG (100=total damage; 0=no damage)
[20] = Ipomoea hederacea, IPOHE, read-out: damage to plant IPOHE (100=total damage; 0=no damage)
[21] = Abutilon theophrasti, ABUTH, read-out: damage to plant ABUTH (100=total damage; 0=no damage)

| Compound | score (100=total damage to plant, 0=no damage to plant) [1] | score (100=total damage to plant, 0=no damage to plant) [2] | score (100=total damage to plant, 0=no damage to plant) [3] | score (100=total damage to plant, 0=no damage to plant) [4] | score (100=total damage to plant, 0=no damage to plant) [5] | score (100=total damage to plant, 0=no damage to plant) [6] | score (100=total damage to plant, 0=no damage to plant) [7] | score (100=total damage to plant, 0=no damage to plant) [8] | pest or weed control at 1000 g/ha [9] [%] | plant injury at 1000 g/ha [10] [%] | pest or weed control at 1000 g/ha [11] [%] | pest or weed control at 1000 g/ha [12] [%] | pest or weed control at 1000 g/ha [13] [%] | pest or weed control at 1000 g/ha [14] [%] | pest or weed control at 1000 g/ha [15, 16] [%] | pest or weed control at 1000 g/ha [15, 17] [%] | pest or weed control at 1000 g/ha [15, 18] [%] | pest or weed control at 1000 g/ha [15, 19] [%] | pest or weed control at 1000 g/ha [15, 20] [%] | pest or weed control at 1000 g/ha [15, 21] [%] | further results |
| --- | --- | --- | --- | --- | --- | --- | --- | --- | --- | --- | --- | --- | --- | --- | --- | --- | --- | --- | --- | --- | --- |
| CC(C)(C)c1ccc(C(F)(F)C(=O)O)cc1 [Compound 1-1] | 20 | 0 | 0 | 0 | 0 | 0 | 0 | 40 | – | – | – | – | – | – | – | – | – | – | – | – | – |
| COc1ccc(C(F)(F)C(=O)O)cc1 [Compound 1-2] | 0 | 0 | 0 | 0 | 50 | 0 | 0 | 40 | – | – | – | – | – | – | – | – | – | – | – | – | – |
| O=C(O)C(F)(F)c1ccc(OC(F)(F)F)cc1 [Compound 1-3] | 30 | 0 | 30 | 50 | 30 | 0 | 0 | 70 | – | – | – | – | – | – | – | – | – | – | – | – | – |
| COc1cccc(C(F)(F)C(=O)O)c1 [Compound 1-6] | 0 | 0 | 0 | – | 20 | 0 | 0 | 80 | – | – | – | – | – | – | – | – | – | – | – | – | – |
| O=C(O)C(F)(F)c1cccc2cccc(Cl)c12 [Compound 1-416, 2-(8-chloro-1-naphthyl)-2,2-difluoro-acetic acid] | – | – | – | – | – | – | – | – | 80 | 10 | 40 | 90 | 80 | 90 | 90 | 20 | 80 | 10 | 80 | – | – |
| CCOC(=O)C(F)(F)c1cccc2ccccc12 [Compound 3-397, Ethyl 2,2-difluoro-2-(1-naphthyl)acetate] | – | 0 | 0 | 0 | 70 | 0 | 0 | 40 | 40 | 20 | 0 | 0 | 50 | 10 | 100 | 0 | 10 | 0 | 60 | 90 | – |
| Nc1ccc(Cl)c(Cl)c1C(F)(F)C(=O)[O-].[Li+] [Compound 5-80, Lithium;2-(6-amino-2,3-dichloro-phenyl)-2,2-difluoro-acetate] | – | – | – | – | – | – | – | – | – | – | – | – | – | – | – | – | – | – | – | – | evaluation (100=total damage to plant; 0=no damage to plant) [9]: 0; evaluation (100=total damage to plant; 0=no damage to plant) [10]: 0; evaluation (100=total damage to plant; 0=no damage to plant) [11]: 0; evaluation (100=total damage to plant; 0=no damage to plant) [12]: 0; evaluation (100=total damage to plant; 0=no damage to plant) [13]: 0; evaluation (100=total damage to plant; 0=no damage to plant) [14]: 0; damage to plant AMARE (100=total damage; 0=no damage) ([15]; AMARE): 20; damage to plant ECHCG (100=total damage; 0=no damage) ([15]; ECHCG): 0; damage to plant IPOHE (100=total damage; 0=no damage) ([15]; IPOHE): 10; damage to plant STEME (100=total damage; 0=no damage) ([15]; STEME): 10; damage to plant ZEAMX (100=total damage; 0=no damage) ([15]; ZEAMX): 10 |
| N#Cc1ccccc1C(F)(F)C(=O)[O-].[Li+] [Compound 5-255] | – | 0 | 0 | 20 | 70 | 0 | 0 | 70 | – | – | – | – | – | – | – | – | – | – | – | – | – |
| N.Nc1ccc(C(F)(F)C(=O)O)c(Cl)c1Cl [Compound 7-75, Ammonium;2-(4-amino-2,3-dichloro-phenyl)-2,2-difluoro-acetate] | – | – | – | – | – | – | – | – | – | – | – | – | – | – | – | – | – | – | – | – | evaluation (100=total damage to plant; 0=no damage to plant) [9]: 70; evaluation (100=total damage to plant; 0=no damage to plant) [10]: 0; evaluation (100=total damage to plant; 0=no damage to plant) [11]: 30; evaluation (100=total damage to plant; 0=no damage to plant) [12]: 20; evaluation (100=total damage to plant; 0=no damage to plant) [13]: 70; evaluation (100=total damage to plant; 0=no damage to plant) [14]: 70; damage to plant AMARE (100=total damage; 0=no damage) ([15]; AMARE): 70; damage to plant ECHCG (100=total damage; 0=no damage) ([15]; ECHCG): 60; damage to plant IPOHE (100=total damage; 0=no damage) ([15]; IPOHE): 20; damage to plant STEME (100=total damage; 0=no damage) ([15]; STEME): 90; damage to plant ZEAMX (100=total damage; 0=no damage) ([15]; ZEAMX): 10 |
| O=C(O)C(F)(F)c1cccc([N+](=O)[O-])c1Cl [Compound 7-237, Ammonium 2-(2-chloro-3-nitro-phenyl)-2,2-difluoro-acetate] | – | – | – | – | – | – | – | – | 0 | 0 | 0 | 50 | 10 | 0 | 0 | 0 | 50 | 10 | 60 | 0 | – |
| O=C(O)C(F)(F)c1cccc(Cl)c1[N+](=O)[O-] [Compound 7-250, Ammonium 2-(3-chloro-2-nitro-phenyl)-2,2-difluoro-acetate] | – | – | – | – | – | – | – | – | 100 | 50 | 30 | 90 | 90 | 100 | 100 | 20 | 100 | 30 | 80 | 90 | – |
| Nc1c(Cl)ccc(Cl)c1C(F)(F)C(=O)O [Compound 7-254, 2-(2-amino-3,6-dichlorophenyl)-2,2-difluoroacetic acid] | – | – | – | – | – | – | – | – | 30 | 10 | 0 | 10 | 40 | 20 | 60 | 20 | 50 | 0 | 30 | 30 | – |
